ChEMBL document CHEMBL6078691, “Modulating Phosphorylation by Proximity-Inducing Modalities for Cancer Therapy” (J Med Chem, 2024)

What was measured:
[1] = biological target: Microtubule-associated protein tau (Homo sapiens, UniProt P10636); assay: Inhibition of tau phosphorylation (unknown origin)
[2] = biological target: T1, Epidermal growth factor receptor (Homo sapiens, UniProt P00533); assay: Inhibition of EGFR (unknown origin) at 0.5 uM relative to control
[3] = biological target: T1, Epidermal growth factor receptor; assay: Inhibition of EGFR (unknown origin)

T1 sequence (P00533 whole entry): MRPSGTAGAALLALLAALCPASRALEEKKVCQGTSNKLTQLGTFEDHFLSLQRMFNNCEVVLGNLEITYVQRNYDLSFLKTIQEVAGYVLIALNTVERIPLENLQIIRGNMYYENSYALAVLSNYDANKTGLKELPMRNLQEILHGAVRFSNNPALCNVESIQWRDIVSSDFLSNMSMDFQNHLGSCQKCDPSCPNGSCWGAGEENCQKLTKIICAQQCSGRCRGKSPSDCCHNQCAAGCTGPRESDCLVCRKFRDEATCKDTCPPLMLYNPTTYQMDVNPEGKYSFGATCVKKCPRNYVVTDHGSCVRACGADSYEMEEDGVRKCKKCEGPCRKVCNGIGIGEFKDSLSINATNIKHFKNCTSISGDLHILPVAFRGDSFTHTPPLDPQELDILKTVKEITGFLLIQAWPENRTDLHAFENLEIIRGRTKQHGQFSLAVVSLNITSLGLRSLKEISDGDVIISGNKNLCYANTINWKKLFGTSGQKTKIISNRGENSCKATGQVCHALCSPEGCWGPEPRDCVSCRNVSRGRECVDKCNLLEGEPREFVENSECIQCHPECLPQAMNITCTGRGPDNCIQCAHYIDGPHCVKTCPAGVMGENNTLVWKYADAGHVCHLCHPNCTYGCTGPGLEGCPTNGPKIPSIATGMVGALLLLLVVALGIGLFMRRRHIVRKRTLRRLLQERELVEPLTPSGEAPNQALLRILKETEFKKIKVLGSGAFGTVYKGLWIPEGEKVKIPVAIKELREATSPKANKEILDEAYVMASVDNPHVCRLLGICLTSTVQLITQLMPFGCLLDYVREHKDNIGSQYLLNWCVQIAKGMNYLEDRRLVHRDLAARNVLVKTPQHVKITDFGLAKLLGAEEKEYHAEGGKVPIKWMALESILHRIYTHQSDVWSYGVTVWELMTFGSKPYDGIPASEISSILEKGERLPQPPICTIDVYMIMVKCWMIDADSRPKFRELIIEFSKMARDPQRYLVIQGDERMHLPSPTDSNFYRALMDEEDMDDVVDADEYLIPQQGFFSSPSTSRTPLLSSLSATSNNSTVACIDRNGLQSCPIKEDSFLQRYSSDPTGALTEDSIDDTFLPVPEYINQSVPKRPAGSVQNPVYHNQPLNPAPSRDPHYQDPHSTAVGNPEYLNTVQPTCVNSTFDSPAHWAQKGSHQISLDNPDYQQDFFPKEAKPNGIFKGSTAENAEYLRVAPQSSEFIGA
Microtubule-associated protein tau, sequence (P10636 whole entry): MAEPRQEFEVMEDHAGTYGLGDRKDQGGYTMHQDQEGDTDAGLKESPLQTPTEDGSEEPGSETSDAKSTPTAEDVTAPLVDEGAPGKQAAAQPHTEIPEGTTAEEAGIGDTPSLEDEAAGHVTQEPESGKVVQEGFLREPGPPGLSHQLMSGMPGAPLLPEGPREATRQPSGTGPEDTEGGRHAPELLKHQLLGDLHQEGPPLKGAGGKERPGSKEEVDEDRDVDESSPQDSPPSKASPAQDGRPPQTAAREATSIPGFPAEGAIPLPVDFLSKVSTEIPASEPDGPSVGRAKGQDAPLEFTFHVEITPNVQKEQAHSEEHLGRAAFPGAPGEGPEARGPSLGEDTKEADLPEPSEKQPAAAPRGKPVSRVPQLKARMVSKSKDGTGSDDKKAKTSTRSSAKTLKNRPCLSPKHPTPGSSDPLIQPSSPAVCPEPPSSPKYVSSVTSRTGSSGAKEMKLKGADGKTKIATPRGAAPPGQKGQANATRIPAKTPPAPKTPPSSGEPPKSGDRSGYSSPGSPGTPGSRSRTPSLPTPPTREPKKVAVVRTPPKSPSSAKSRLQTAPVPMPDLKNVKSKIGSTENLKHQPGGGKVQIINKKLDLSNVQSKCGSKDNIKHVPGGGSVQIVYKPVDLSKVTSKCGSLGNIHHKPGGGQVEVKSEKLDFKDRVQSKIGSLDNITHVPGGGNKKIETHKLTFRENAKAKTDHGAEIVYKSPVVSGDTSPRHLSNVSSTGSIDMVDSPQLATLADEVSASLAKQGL

Row | Compound | IC50 [1] [nM] | other results
1 | CC[C@H](C)[C@H](NC(=O)[C@H](CCSC)NC(=O)[C@H](Cc1c[nH]c2ccccc12)NC(=O)[C@@H](NC(=O)[C@@H](N)CC(=O)O)C(C)C)C(=O)N[C@@H](CC(N)=O)C(=O)N[C@@H](CCCCN)C(=O)N[C@@H](CCCCN)C(=O)N[C@@H](CCCNC(=N)N)C(=O)N[C@@H](CCCCN)C(=O)NCCOCCOCCOCCOCCOCCOCCN[C@@H](CCCNC(=N)N)C(=O)N[C@H](C(=O)N1CCC[C@H]1C(=O)N1CCC[C@H]1C(=O)N[C@@H](CCCCN)C(=O)N[C@@H](CO)C(=O)N1CCC[C@H]1C(=O)N[C@@H](CCCNC(=N)N)C(=O)N[C@@H](CCCNC(=N)N)C(=O)N[C@@H](CCCNC(=N)N)C(=O)N[C@@H](CCCNC(=N)N)C(=O)N[C@@H](CCCNC(=N)N)C(=O)N[C@@H](CCCNC(=N)N)C(=O)N[C@@H](CCCNC(=N)N)C(=O)N[C@@H](CCCNC(=N)N)C(=O)O)[C@@H](C)O | 2000 | 
2 | CC[C@H](C(=O)N1CCCC[C@@H]1C(=O)O[C@H](CCc1ccc(OC)c(OC)c1)c1cccc(OCC(=O)NCCOCCOCCN(C)C/C=C/C(=O)Nc2cc3c(Nc4ccc(F)c(Cl)c4)ncnc3cc2OC)c1)c1cc(OC)c(OC)c(OC)c1 |  | inhibition [2]: 90%
3 | CC[C@H](C(=O)N1CCCC[C@@H]1C(=O)O[C@H](CCc1ccc(OC)c(OC)c1)c1cccc(OCC(=O)NCCC(=O)N2CCN(CCCOc3cc4c(Nc5ccc(F)c(Cl)c5)ncnc4cc3OC)CC2)c1)c1cc(OC)c(OC)c(OC)c1 |  | IC50 [3]: 13 nM
4 | H-YQQYQDATADEQGGSGSKKVAVVRTPPKSPRRRRRRRR-OH | > 20000 | 
